Experimental data from patent US7135457B1, “Random peptides that bind to gastro-intestinal tract (GIT) transport receptors and related methods” (Cytogen Corporation, priority 1997, dated 2006).
Peptide text beside a SMILES is read from it. * marks the point of attachment. Dansyl = CN(C)c1cccc2c(S(=O)(=O)*)cccc12

System: P100 membrane fractions derived from Caco-2 cells
Assay: Dansylated peptide ELISA on P100: PAX2 and HAX42 peptides relative binding
Description: The peptides and proteins were analyzed by a dansylated peptide ELISA method in which 96 well plates were coated overnight at 4° C. with 100 μl/well coating protein (normally 100 μg/ml P100 membrane fraction) in 0.05M carbonate buffer pH9.6. Nonspecific binding was blocked using 200 μl/well, 2% Marvel/PBS for 2 hours at 37° C. prior to incubation with dansylated peptides. The plates were washed three times with PBS/0.05% Tween 20 and after each subsequent incubation step. […] A buffer blank control was included to ensure that background binding to plastic was not due to the antibodies used in the assay system. […] The plates were then incubated with an anti-mouse λ-HRP conjugated antibody (Southern Biotech 1060-05) at a 1:10,000 dilution in blocking solution, 100 μl/well for 1 hour at room temperature. Plates were developed using 75 μl/well Bionostics TMB substrate and incubated for approximately 10 minutes. The developing reaction was stopped using Bionostics Red Stop solution (25 μl/well), and the optical density of the plates was read at 650 nm.

[1] = PAX2 peptides, ratio to ZElan021 (HAX42 = 1.00), first 50 μg/ml column
[2] = PAX2 peptides, ratio to ZElan021 (HAX42 = 1.00), first 20 μg/ml column
[3] = PAX2 peptides, ratio to ZElan021 (HAX42 = 1.00), second 50 μg/ml column
[4] = PAX2 peptides, ratio to ZElan021 (HAX42 = 1.00), second 20 μg/ml column
[5] = HAX42 peptides, ratio to ZElan021 (arbitrary 1.00)
[6] = HAX42 peptides, ratio to ZElan021 (arbitrary 1.00), first 50 μg/ml column
[7] = HAX42 peptides, ratio to ZElan021 (arbitrary 1.00), second 50 μg/ml column

Row | SMILES | Binding value at 50 μg/ml [1] | Binding value at 20 μg/ml [2] | Binding value at 50 μg/ml [3] | Binding value at 20 μg/ml [4] | Binding value at 20 μg/ml [5] | Binding value at 50 μg/ml [6] | Binding value at 50 μg/ml [7]
1 | CC(C)C[C@H](NC(=O)[C@H](CCCNC(=N)N)NC(=O)[C@H](CCCNC(=N)N)NC(=O)[C@H](CC(N)=O)NC(=O)[C@H](Cc1c[nH]cn1)NC(=O)[C@H](CO)NC(=O)[C@H](CO)NC(=O)[C@H](Cc1c[nH]cn1)NC(=O)[C@H](CCCCN)NC(=O)[C@H](C)NC(=O)[C@H](CC(N)=O)NC(=O)[C@@H](NC(=O)[C@@H](N)CCCCNS(=O)(=O)c1cccc2c(N(C)C)cccc12)[C@@H](C)O)C(=O)N[C@@H](CCCNC(=N)N)C(=O)N[C@H](C(=O)N[C@@H](CCCNC(=N)N)C(=O)N[C@@H](CO)C(=O)N[C@@H](CCCNC(=N)N)C(=O)N1CCC[C@H]1C(=O)N[C@@H](CC(N)=O)C(N)=O)[C@@H](C)O [ZElan032] (H-K(Dansyl)TNAKHSSHNRRLRTRSRPN-NH2) | 0.95 | – | – | – | – | – | –
2 | CC(C)C[C@H](NC(=O)[C@H](CCCNC(=N)N)NC(=O)[C@H](CCCNC(=N)N)NC(=O)[C@H](CC(N)=O)NC(=O)[C@H](Cc1c[nH]cn1)NC(=O)[C@H](CO)NC(=O)[C@H](CO)NC(=O)[C@H](Cc1c[nH]cn1)NC(=O)[C@H](CCCCN)NC(=O)[C@H](C)NC(=O)[C@H](CC(N)=O)NC(=O)[C@@H](NC(=O)[C@@H](N)CCCCNS(=O)(=O)c1cccc2c(N(C)C)cccc12)[C@@H](C)O)C(=O)N[C@@H](CCCNC(=N)N)C(=O)N[C@H](C(=O)N[C@@H](CCCNC(=N)N)C(N)=O)[C@@H](C)O [ZElan033] (H-K(Dansyl)TNAKHSSHNRRLRTR-NH2) | 0.80 | 0.35 | 0.66 | – | – | – | –
3 | CC(C)C[C@H](NC(=O)[C@H](CCCNC(=N)N)NC(=O)[C@H](CCCNC(=N)N)NC(=O)[C@H](CC(N)=O)NC(=O)[C@H](Cc1c[nH]cn1)NC(=O)[C@H](CO)NC(=O)[C@H](CO)NC(=O)[C@@H](N)CCCCNS(=O)(=O)c1cccc2c(N(C)C)cccc12)C(=O)N[C@@H](CCCNC(=N)N)C(=O)N[C@H](C(=O)N[C@@H](CCCNC(=N)N)C(N)=O)[C@@H](C)O [ZElan035] (H-K(Dansyl)SSHNRRLRTR-NH2) | 0.81 | 0.12 | 0.77 | 0.43 | – | – | –
4 | C[C@H](NC(=O)[C@H](CC(N)=O)NC(=O)[C@@H](NC(=O)[C@@H](N)CCCCNS(=O)(=O)c1cccc2c(N(C)C)cccc12)[C@@H](C)O)C(=O)N[C@@H](CCCCN)C(=O)N[C@@H](Cc1c[nH]cn1)C(=O)N[C@@H](CO)C(=O)N[C@@H](CO)C(=O)N[C@@H](Cc1c[nH]cn1)C(=O)N[C@@H](CC(N)=O)C(N)=O [ZElan055] (H-K(Dansyl)TNAKHSSHN-NH2) | 1.10 | 0.99 | 0.59 | 0.73 | – | – | –
5 | CC(C)C[C@H](NC(=O)[C@H](CCCNC(=N)N)NC(=O)[C@H](CCCNC(=N)N)NC(=O)[C@@H](N)CCCCNS(=O)(=O)c1cccc2c(N(C)C)cccc12)C(=O)N[C@@H](CCCNC(=N)N)C(=O)N[C@H](C(=O)N[C@@H](CCCNC(=N)N)C(=O)N[C@@H](CO)C(=O)N[C@@H](CCCNC(=N)N)C(=O)N1CCC[C@H]1C(=O)N[C@@H](CC(N)=O)C(N)=O)[C@@H](C)O [ZElan056] (H-K(Dansyl)RRLRTRSRPN-NH2) | 0.21 | 0.00 | 0.21 | 0.16 | – | – | –
6 | CC(C)C[C@H](NC(=O)[C@H](CCCNC(=N)N)NC(=O)[C@H](CCCNC(=N)N)NC(=O)[C@@H](N)CCCCNS(=O)(=O)c1cccc2c(N(C)C)cccc12)C(=O)N[C@@H](CCCNC(=N)N)C(=O)N[C@H](C(=O)N[C@@H](CCCNC(=N)N)C(=O)N[C@@H](CO)C(=O)N[C@@H](CCCNC(=N)N)C(N)=O)[C@@H](C)O [ZElan057] (H-K(Dansyl)RRLRTRSR-NH2) | 0.56 | 0.08 | 0.25 | – | – | – | –
7 | CC(C)C[C@H](NC(=O)[C@H](CCCNC(=N)N)NC(=O)[C@H](CCCNC(=N)N)NC(=O)[C@@H](N)CCCCNS(=O)(=O)c1cccc2c(N(C)C)cccc12)C(=O)N[C@@H](CCCNC(=N)N)C(=O)N[C@H](C(=O)N[C@@H](CCCNC(=N)N)C(N)=O)[C@@H](C)O [ZElan058, H2N-K(dns)RRLRTR-CONH2] (H-K(Dansyl)RRLRTR-NH2) | 0.47 | 0.05 | 0.16 | – | – | – | –
8 | CC(C)C[C@H](NC(=O)[C@H](C)NC(=O)[C@H](Cc1c[nH]cn1)NC(=O)[C@H](CC(=O)O)NC(=O)[C@H](CO)NC(=O)[C@@H](N)CCCCNS(=O)(=O)c1cccc2c(N(C)C)cccc12)C(=O)NCC(=O)N[C@H](C(=O)N[C@@H](CC(N)=O)C(=O)N[C@@H](CC(C)C)C(=O)N[C@@H](CCCNC(=N)N)C(=O)N[C@@H](CO)C(=O)N[C@@H](CC(=O)O)C(=O)N[C@@H](CC(N)=O)C(=O)N[C@@H](C)C(=O)N[C@@H](CCCCN)C(=O)N[C@@H](CCC(=O)O)C(=O)N1CCC[C@H]1C(=O)NCC(=O)N[C@@H](CC(=O)O)C(=O)N[C@@H](Cc1ccc(O)cc1)C(=O)N[C@@H](CC(N)=O)C(=O)N[C@@H](CS)C(=O)N[C@@H](CS)C(=O)NCC(=O)N[C@@H](CC(N)=O)C(=O)NCC(N)=O)[C@@H](C)O [ZElan060] (H-K(Dansyl)SDHALGTNLRSDNAKEPGDYNCCGNG-NH2) | – | – | – | – | 0.44 | 0.56 | 0.43
9 | CC[C@H](C)[C@H](NC(=O)[C@H](C)NC(=O)[C@H](CO)NC(=O)[C@@H]1CCCN1C(=O)[C@H](CCCNC(=N)N)NC(=O)[C@H](CCCNC(=N)N)NC(=O)[C@H](CCCNC(=N)N)NC(=O)[C@H](CC(N)=O)NC(=O)[C@H](Cc1ccccc1)NC(=O)[C@@H](NC(=O)[C@H](CCCCN)NC(=O)[C@H](CCCNC(=N)N)NC(=O)CNC(=O)[C@@H](NC(=O)[C@H](CO)NC(=O)[C@H](CC(N)=O)NC(=O)CNC(=O)[C@H](CC(N)=O)NC(=O)CNC(=O)[C@H](CS)NC(=O)[C@H](CS)NC(=O)[C@H](CC(N)=O)NC(=O)[C@H](Cc1ccc(O)cc1)NC(=O)[C@H](CC(=O)O)NC(=O)CNC(=O)[C@@H](N)CCCCNS(=O)(=O)c1cccc2c(N(C)C)cccc12)[C@@H](C)O)C(C)C)C(=O)N1CCC[C@H]1C(=O)N[C@H](C(N)=O)[C@@H](C)O [ZElan061] (H-K(Dansyl)GDYNCCGNGNSTGRKVFNRRRPSAIPT-NH2) | – | – | – | – | 0.20 | 0.60 | 0.38
10 | CC(C)C[C@H](NC(=O)[C@H](C)NC(=O)[C@H](Cc1c[nH]cn1)NC(=O)[C@H](CC(=O)O)NC(=O)[C@H](CO)NC(=O)[C@@H](N)CCCCNS(=O)(=O)c1cccc2c(N(C)C)cccc12)C(=O)NCC(=O)N[C@H](C(=O)N[C@@H](CC(N)=O)C(=O)N[C@@H](CC(C)C)C(=O)N[C@@H](CCCNC(=N)N)C(=O)N[C@@H](CO)C(=O)N[C@@H](CC(=O)O)C(=O)N[C@@H](CC(N)=O)C(=O)N[C@@H](C)C(=O)N[C@@H](CCCCN)C(=O)N[C@@H](CCC(=O)O)C(=O)N1CCC[C@H]1C(=O)NCC(N)=O)[C@@H](C)O [ZElan062] (H-K(Dansyl)SDHALGTNLRSDNAKEPG-NH2) | – | – | – | – | 0.11 | 0.42 | 0.34
